Results: patent EP2061765B1, “Serine-threonine protein kinase and PARP modulators” (Senhwa Biosciences, Inc., priority 2006, dated 2008)

Columns and labels:
Assay in all cases: Cell proliferation assay (Alamar Blue)
Type in all cases: cell-based
Jurkat = conditions: Homo sapiens, 96 h, Jurkat cells, four days
Method: (§1) A representative cell-proliferation assay protocol using Alamar Blue dye (stored at 4°C, use 20ul per well) is described hereafter. 96-well plate setup and compound treatment • a. Split and trypsinize cells. • b. Count cells using hemocytometer. • c. Plate 4,000-5,000 cells per well in 100 µl of medium and seed into a 96-well plate according to the following plate layout. Add cell culture medium only to wells B10 to B12. Wells B1 to B9 have cells but no compound added. [formula] [formula] • d. Add 100 µl of 2X drug dilution to each well in a concentration shown in the plate layout above. At the same time, add 100 µl of media into the control wells (wells B10 to B12). Total volume is 200 µl/well. • e. Incubate four (4) days at 37°C, 5% CO2 in a humidified incubator. • f. Add 20µl Alamar Blue reagent to each well. • g. Incubate for four (4) hours at 37°C, 5% CO2 in a humidified incubator. • h. Record fluorescence at an excitation wavelength of 544nm and emission wavelength of 590nm using a microplate reader.
(§2) In the assays, cells are cultured with a test compound for approximately four days, the dye then is added to the cells and fluorescence of […] dye is detected after approximately four hours. Different types of cells can be utilized in the assays (e.g., HCT-116 human colorectal carcinoma cells, PC-3 human prostatic cancer cells and MiaPaca human pancreatic carcinoma cells). Anti-proliferative effects of representative compounds are provided hereafter.

MiaPaCa = conditions: Homo sapiens, MIA PaCa-2, 96 h, MiaPaCa cells, four days
Method: as §1, §2

HCT-116 = conditions: Homo sapiens, 96 h, HCT-116 cells, four days
MDAMB231 = conditions: Homo sapiens, MDA-MB-231, 96 h, MDAMB231 cells, four days
Method: as §1, §2

Cc1cccc(Nc2nc3cc(C(=O)O)ccc3c3cnccc23)c1 [drawing 356]
IC50 (Jurkat): 3.45 µM | IC50 (MiaPaCa): 8.33 µM | IC50 (HCT-116): > 10 µM

O=C(O)c1ccc2c(c1)nc(Nc1cccc(C(F)(F)F)c1)c1ccncc12 [drawing 357]
IC50 (Jurkat): 3.15 µM | IC50 (MiaPaCa): 8.55 µM | IC50 (HCT-116): 5.14 µM

O=C(O)c1ccc2c(c1)nc(Nc1cc(F)cc(F)c1)c1nc(NC3CC3)ncc12 [drawing 358]
IC50 (Jurkat): 6.02 µM | IC50 (MiaPaCa): 2.32 µM | IC50 (HCT-116): > 10 µM

O=C(O)c1ccc2c(c1)nc(Nc1cccc(F)c1)c1nc(NC3CC3)ncc12 [drawing 359]
IC50 (Jurkat): 3.56 µM | IC50 (MiaPaCa): 3.27 µM | IC50 (HCT-116): > 10 µM

COc1cccc(Nc2nc3cc(C(=O)O)ccc3c3cnc(NC4CC4)nc23)c1 [drawing 360]
IC50 (Jurkat): 3.44 µM | IC50 (MiaPaCa): 2.85 µM | IC50 (HCT-116): > 10 µM

CN(C)CCNc1ncc2c(n1)c(Nc1ccc(F)c(Cl)c1)nc1cc(C(=O)O)ccc12 [drawing 361]
IC50 (Jurkat): 1.25 µM | IC50 (MiaPaCa): 2.14 µM | IC50 (HCT-116): > 10 µM

O=C(O)c1ccc2c(c1)nc(Nc1ccc(F)c(Cl)c1)c1nc(NCc3ccccn3)ncc12 [drawing 362]
IC50 (Jurkat): 2.59 µM | IC50 (MiaPaCa): 8.21 µM | IC50 (HCT-116): > 10 µM

COC(CNc1ncc2c(n1)c(Nc1ccc(F)c(Cl)c1)nc1cc(C(=O)O)ccc12)OC [drawing 363]
IC50 (Jurkat): 1.12 µM | IC50 (MiaPaCa): 3.41 µM | IC50 (HCT-116): > 10 µM

NC(=O)c1ccc2c(c1)nc(Nc1cccc(C(F)(F)F)c1)c1nc(NC3CC3)ncc12 [drawing 364]
IC50 (Jurkat): 1.16 µM | IC50 (MiaPaCa): 3.97 µM | IC50 (HCT-116): > 10 µM

CNC(=O)c1ccc2c(c1)nc(Nc1cccc(C(F)(F)F)c1)c1nc(NC3CC3)ncc12 [drawing 366]
IC50 (Jurkat): 3.65 µM | IC50 (MiaPaCa): 11.9 µM | IC50 (HCT-116): > 10 µM

O=C(O)c1ccc2c(c1)nc(Nc1ccc(F)c(Cl)c1)c1nc(NCc3cccnc3)ncc12 [drawing 367]
IC50 (Jurkat): 1.5 µM | IC50 (MiaPaCa): 1.97 µM | IC50 (HCT-116): > 10 µM

O=C(O)c1ccc2c(c1)nc(Nc1ccc(F)c(Cl)c1)c1nc(NCc3ccncc3)ncc12 [drawing 368]
IC50 (Jurkat): 5.11 µM | IC50 (MiaPaCa): 4.5 µM | IC50 (HCT-116): > 10 µM

O=C(O)c1ccc2c(c1)nc(Nc1ccccc1)c1nc(Nc3ccccc3)ncc12 [drawing 369]
IC50 (Jurkat): 8.98 µM | IC50 (MiaPaCa): 5.12 µM | IC50 (HCT-116): > 10 µM

CCOC(=O)CCNC(=O)c1ccc2c(c1)nc(Nc1cccc(C(F)(F)F)c1)c1nc(NC3CC3)ncc12 [drawing 371]
IC50 (Jurkat): 3.75 µM | IC50 (MiaPaCa): 0.33 µM | IC50 (HCT-116): > 10 µM

O=C(O)c1ccc2c(c1)nc(Nc1ccc(F)c(Cl)c1)c1ncncc12 [drawing 374]
IC50 (MDAMB231): 1.11 µM

O=C(O)c1ccc2c(c1)nc(Nc1ccccc1)c1nc(NC3CC3)ncc12 [drawing 389]
IC50 (MDAMB231): 0.73 µM

CCCNc1ncc2c(n1)c(Nc1ccccc1)nc1cc(C(=O)O)ccc12 [drawing 390]
IC50 (MDAMB231): 18.2 µM

COCCNc1ncc2c(n1)c(Nc1ccccc1)nc1cc(C(=O)O)ccc12 [drawing 391]
IC50 (MDAMB231): 24.4 µM

O=C(O)c1ccc2c(c1)nc(Nc1ccccc1)c1nc(NCCO)ncc12 [drawing 392]
IC50 (MDAMB231): > 50 µM

O=C(O)c1ccc2c(c1)nc(Nc1ccccc1)c1nc(NCCCO)ncc12 [drawing 393]
IC50 (MDAMB231): 48.2 µM

O=C(O)c1ccc2c(c1)nc(Nc1ccccc1)c1nc(NC3CCNCC3)ncc12 [drawing 394]
IC50 (MDAMB231): > 50 µM

CCN(CC)CCNc1ncc2c(n1)c(Nc1ccccc1)nc1cc(C(=O)O)ccc12 [drawing 395]
IC50 (MDAMB231): 10.5 µM

O=C(O)c1ccc2c(c1)nc(Nc1ccccc1)c1nc(NCCN3CCOCC3)ncc12 [drawing 396]
IC50 (MDAMB231): 2.44 µM

O=C(O)c1ccc2c(c1)nc(Nc1ccccc1)c1nc(NCCCN3CCOCC3)ncc12 [drawing 397]
IC50 (MDAMB231): > 50 µM

C#Cc1cccc(Nc2nc3cc(C(=O)O)ccc3c3cnc(NC4CC4)nc23)c1 [drawing 398]
IC50 (MDAMB231): 4.9 µM

C#Cc1cccc(Nc2nc3cc(C(=O)O)ccc3c3cnc(NCCC)nc23)c1 [drawing 399]
IC50 (MDAMB231): 10.4 µM

C#Cc1cccc(Nc2nc3cc(C(=O)O)ccc3c3cnc(NCCOC)nc23)c1 [drawing 400]
IC50 (MDAMB231): 4.74 µM

C#Cc1cccc(Nc2nc3cc(C(=O)O)ccc3c3cnc(NC4CCNCC4)nc23)c1 [drawing 401]
IC50 (MDAMB231): > 50 µM

C#Cc1cccc(Nc2nc3cc(C(=O)O)ccc3c3cnc(NCCCN4CCOCC4)nc23)c1 [drawing 402]
IC50 (MDAMB231): 12.5 µM

C#Cc1cccc(Nc2nc3cc(C(=O)O)ccc3c3cnc(NC)nc23)c1 [drawing 403]
IC50 (MDAMB231): 5.21 µM

O=C(O)c1ccc2c(c1)nc(Nc1ccc(Cl)c(C(F)(F)F)c1)c1ccncc12 [drawing 404]
IC50 (MDAMB231): 4.43 µM

O=C(O)c1ccc2c(c1)nc(Nc1cccc(Cl)c1)c1nc(NC3CC3)ncc12 [drawing 405]
IC50 (MDAMB231): 3.93 µM

O=C(O)c1ccc2c(c1)nc(Nc1cccc(C(F)(F)F)c1)c1ncncc12 [drawing 406]
IC50 (MDAMB231): 2.93 µM

CCOc1ncc2c(n1)c(Nc1cccc(C(F)(F)F)c1)nc1cc(C(=O)O)ccc12 [drawing 407]
IC50 (MDAMB231): 26.5 µM

CNc1ncc2c(n1)c(Nc1cccc(Cl)c1)nc1cc(C(=O)O)ccc12 [drawing 408]
IC50 (MDAMB231): 8.28 µM

CN(C)c1ncc2c(n1)c(Nc1cccc(Cl)c1)nc1cc(C(=O)O)ccc12 [drawing 409]
IC50 (MDAMB231): 9.82 µM

Nc1ncc2c(n1)c(Nc1cccc(Cl)c1)nc1cc(C(=O)O)ccc12 [drawing 410]
IC50 (MDAMB231): 4.12 µM

CC(C)Nc1ncc2c(n1)c(Nc1cccc(Cl)c1)nc1cc(C(=O)O)ccc12 [drawing 411]
IC50 (MDAMB231): 20.8 µM

O=C(O)c1ccc2c(c1)nc(Nc1cccc(C(F)(F)F)c1)c1nc(NC3CC3)ncc12 [drawing 412]
IC50 (MDAMB231): 9.19 µM

CCNc1ncc2c(n1)c(Nc1cccc(Cl)c1)nc1cc(C(=O)O)ccc12 [drawing 413]
IC50 (MDAMB231): 6.87 µM

CNc1ncc2c(n1)c(Nc1ccc(F)c(Cl)c1)nc1cc(C(=O)O)ccc12 [drawing 414]
IC50 (MDAMB231): 15.8 µM

Nc1ncc2c(n1)c(Nc1ccc(F)c(Cl)c1)nc1cc(C(=O)O)ccc12 [drawing 415]
IC50 (MDAMB231): 6.53 µM

O=C(O)c1ccc2c(c1)nc(Nc1ccc(F)c(Cl)c1)c1nc(NC3CC3)ncc12 [drawing 416]
IC50 (MDAMB231): 7.12 µM

COCCNc1ncc2c(n1)c(Nc1ccc(F)c(Cl)c1)nc1cc(C(=O)O)ccc12 [drawing 417]
IC50 (MDAMB231): 12.6 µM

C#Cc1cccc(Nc2nc3cc(C(=O)O)ccc3c3cnc(NCCOCC)nc23)c1 [drawing 418]
IC50 (MDAMB231): 31.6 µM

C#Cc1cccc(Nc2nc3cc(C(=O)O)ccc3c3cnc(NCCCOCC)nc23)c1 [drawing 419]
IC50 (MDAMB231): 5.22 µM

C#Cc1cccc(Nc2nc3cc(C(=O)O)ccc3c3cnc(NCCCOC(C)C)nc23)c1 [drawing 420]
IC50 (MDAMB231): 7.05 µM

O=C(O)c1ccc2c(c1)nc(Nc1cccc(Cl)c1)c1nc(O)ncc12 [drawing 421]
IC50 (MDAMB231): > 50 µM

Cc1ncc2c(n1)c(Nc1cccc(Cl)c1)nc1cc(C(=O)O)ccc12 [drawing 422]
IC50 (MDAMB231): 5.48 µM

C#Cc1cccc(Nc2nc3cc(C(=O)OC)ccc3c3cnc(NOC)nc23)c1 [drawing 423]
IC50 (MDAMB231): > 50 µM

COC(=O)c1ccc2c(c1)nc(Nc1cccc(Cl)c1)c1nc(NCCC(N)=O)ncc12 [drawing 424]
IC50 (MDAMB231): 27.2 µM

NC(=O)CCNc1ncc2c(n1)c(Nc1cccc(Cl)c1)nc1cc(C(=O)O)ccc12 [drawing 425]
IC50 (MDAMB231): > 50 µM

O=C(O)CCNc1ncc2c(n1)c(Nc1cccc(Cl)c1)nc1cc(C(=O)O)ccc12 [drawing 426]
IC50 (MDAMB231): > 50 µM

Cc1cccc(Nc2nc3cc(C(=O)O)ccc3c3cnccc23)c1 [drawing 427]
IC50 (MDAMB231): 17.5 µM

O=C(O)c1ccc2c(c1)nc(Nc1cccc(C(F)(F)F)c1)c1ccncc12 [drawing 428]
IC50 (MDAMB231): 13 µM
